Patent US20240180805A1, “COMPOSITION FOR INHIBITING WRINKLE” (YUKI GOSEI KOGYO CO., LTD., priority 2022, published 2024)

System: hyaluronic acid synthase (HAS2)
Conditions: β-alanine 10 mM added twice, 24 h apart; total 48 h; relative to β-actin (ΔΔCt); FIG. 1

**Q.** Which “mRNA of hyaluronic acid synthase in dermal fibroblasts” value does the source give for `NCCC(=O)O` [β-alanine] here?
**A.** increased
